These results are taken from USRE36744E, “Nasal administration of benzodiazepine hypnotics” (Ribogene, Inc., priority 1994, dated 2000).

Data set [1] can be described thus: Comparative oral versus nasal pharmacokinetics of midazolam in dogs (plasma, GC assay). The format is in vivo, beagle dogs. Particulars: for half-life / Tmax / Cmax: dog, plasma. The procedure: Air bubbles generated during mixing were removed by centrifugation.
The dose given to each dog was 7.85, 7.89, 7.22, 5.61 mg free base.
GC Assay--for extraction, 0.5 ml of plasma, 100 μl of internal standard (100 ng/ml flurazepam in methanol) and 0.5 ml of 2N sodium hydroxide were vortexed for 5 seconds. Five ml of hexane was then added and the mixture was vortexed for one min. and centrifuges for 4 minutes. […] Fifty μl of hexane/isoamyl alcohol (80:20) was used for reconstitution.
The temperatures for column, injector port and detector were 250°, 310° and 310° C., respectively. The flow rate for argon/methane (95:5) gas was 33 ml/min.

Data set [2] can be described thus: Comparative oral versus nasal pharmacokinetics of triazolam in beagle dogs (plasma, GC assay). To be noted: for Cmax / half-life / Tmax: dog, plasma. On the procedure: In two comparative studies separated in time by over one week; four healthy male, 2-3 year old beagle dogs received oral and nasal doses of triazolam. They were fasted overnight before each study and food was withheld until the end of the experiment. They were restrained in a dog sling during the studies while blood (3 ml) was withdrawn from each dog through a cannula inserted into the cephalic vein.
Oral Administration Studies: Two 0.5 mg triazolam tablets were given to each dog with 50 ml of water. Blood samples were taken from the cephalic vein at 0 min before administration and 15, 30, 45, 60, 120, 180, 240, 300, 360 and 420 min after administration. The plasma samples were stored frozen until gas chromotographic assay for triazolam.
Nasal Administration Studies: Thirty milligrams of triazolam powder was dissolved in 5 ml of PEG 400 warmed at 55°-60° C. After the solution was cooled to room temperature, an equal volume of 1% methocel J5MS (Dow Chemical Company, Midland, Mich.) solution was mixed with the triazolam solution. Air bubbles generated during mixing were removed by centrifugation. The final concentration of triazolam in the solvent mixture was assayed by an HPLC method. An Altex C18, 4.6×150 mm column was used. The mobile phase contained 60% of 0.05 M KH2 PO4 (pH=6.0, T. J. Baker) and 40% acetonitrile (Fisher Scientific). Flow rate of mobile phase was 1 ml/min. The wavelength used was 221 nm.
Using a metered dose inhaler, triazolam solution was sprayed into both nostrils of the dogs. The dose administered was determined by weighting the bottle containing the triazolam solution before and after spraying. […] Blood sampling times were the same as in the oral study. The plasma samples were frozen until GC assay for triazolam.
GC Assay: To extract triazolam, 0.5 ml of plasma, 50 μl of internal standard (55 ng/ml clonazepam in methanol) and 3 ml of hexane/methylene chloride (4:3) were vortexed together for 15 seconds and centrifuged for 4 minutes. The bottom aqueous layer was frozen by dry ice/acetone and the upper organic layer was transferred to another tube containing 1 ml of distilled water. The mixture was vortexed for 15 seconds and centrifuged for 4 minutes. Two ml of the upper organic layer was then pipetted into another tube and evaporated to dryness in an vortex-evaporator. […] of toluene was used for reconstitution.
The amount of triazolam in 3 ml of extract plasma was assayed by an HP model 5830A GC-EC. The glass column used was a 6'×1/4" 2 mm on column w/o liner 6" coil (Anspec) with 3% OV-17 […] and detector were 275°, 310° and 350° C., respectively. The flow rate for argon/methane (95:5) gas 42 ml/min.

Setting [3] is: nasal spray, 5.61-7.89 mg free base, individual dog.
Setting [4] is: oral, 5 mg free base equivalent, individual dog.

As a reminder, the Tmax is the time from dosing to the highest level. The term Cmax denotes the highest concentration seen after dosing.

SMILES strings stand for the structures. Values joined by “and” are separate entries in the source; they are usually repeats but may differ in a detail not shown here. Equal values may be shown once.

On to `Cc1ncc2n1-c1ccc(Cl)cc1C(c1ccccc1F)=NC2` [midazolam], for which the half-life in data set [1] (nasal spray, 5.61-7.89 mg free base, individual dog, read-out: T1/2 NASAL) turned out to be 36.1 min; in data set [1] (nasal spray, 5.61-7.89 mg free base, mean of four dogs, read-out: T1/2 NASAL (MEAN)), 33.3 min; in data set [1] (po, 5 mg, oral, 5 mg free base equivalent, mean of four dogs, read-out: T1/2 PO (MEAN)), 33.2 min. The Tmax was 15 min in data set [1] (nasal spray, 5.61-7.89 mg free base, individual dog, read-out: TMAX NASAL (converted)); 15 min in data set [1] (nasal spray, 5.61-7.89 mg free base, mean of four dogs, read-out: TMAX NASAL (MEAN) (converted)); 30 min in data set [1] (po, 5 mg, oral, 5 mg free base equivalent, mean of four dogs, read-out: TMAX PO (MEAN) (converted)). For the same compound, the Cmax came to 101 ng/mL in data set [1] (nasal spray, 5.61-7.89 mg free base, mean of four dogs, read-out: CMAX NASAL (MEAN)) and 24.5 ng/mL in data set [1] (po, 5 mg, oral, 5 mg free base equivalent, mean of four dogs, head marked *, read-out: CMAX PO (MEAN)). In addition, the “Mean half-life in both routes of administration” value in data set [1] (dogs, nasal vs oral) was “about the same”. The “Tmax after nasal administration earlier than after oral administration” value in data set [1] (dogs, nasal vs oral) was found to be 2 fold. Moreover, the “Plasma levels after nasal administration compared with oral” value in data set [1] (dogs, nasal vs oral, dose-corrected, FIG. 2) is recorded as “consistently higher”. The “Mean increase in AUC after nasal administration” value in data set [1] (dogs, nasal vs oral, dose-normalized) came out at 2.5 fold. Also, in data set [1] (dogs, oral vs nasal), the “Cmax after oral administration lower than that of nasal route” value is 4 times. Moreover, the “AUC NASAL” value in data set [1] (nasal spray, 5.61-7.89 mg free base, dose-normalized, individual dog) is 842.9 ngmin/ml-mg and 520.8 ngmin/ml-mg and 338.5 ngmin/ml-mg and 650.8 ngmin/ml-mg. The “AUC NASAL (MEAN)” value in data set [1] (nasal spray, 5.61-7.89 mg free base, dose-normalized, mean of four dogs) worked out at 588.3 ngmin/ml-mg. Also, the “CMAX NASAL” value in data set [1] (setting [3]) was 159.0 ng/mL and 111.2 ng/mL and 47.1 ng/mL and 87.9 ng/mL. Moreover, the “T1/2 NASAL” value in data set [1] (setting [3]) is 26.8 min and 36.5 min and 33.8 min. Besides, the “AUC PO” value in data set [1] (oral, 5 mg free base equivalent, dose-normalized, individual dog) is 235.6 ngmin/ml-mg and 242.0 ngmin/ml-mg and 157.8 ngmin/ml-mg and 333.2 ngmin/ml-mg. Besides, the “AUC PO (MEAN)” value in data set [1] (oral, 5 mg free base equivalent, dose-normalized, mean of four dogs) came out at 242.1 ngmin/ml-mg. Further, in data set [1] (setting [4]), the “T1/2 PO” value is 43.5 min and 50.6 min and 19.4 min and 19.3 min. In data set [1] (setting [4]), the “TMAX PO” value is 15.0 min and 45.0 min and 30.0 min.
For the compound `Cc1nnc2n1-c1ccc(Cl)cc1C(c1ccccc1Cl)=NC2` [triazolam], the Cmax in data set [2] (CMAX NASAL (MEAN), nasal spray, 0.9343-1.532 mg, mean of four dogs, ng/ml) turned out to be 27.6 ng/mL; in data set [2] (CMAX NASAL, nasal spray, 0.9343-1.532 mg, individual dog, ng/ml) it was 27.2 ng/mL; in data set [2] (po, 1 mg, CMAX PO (MEAN), two 0.5 mg tablets, mean of four dogs, ng/ml) it was 7 ng/mL; in data set [2] (po, 1 mg, CMAX PO, two 0.5 mg tablets, individual dog, ng/ml), 7.6 ng/mL. Also, the half-life in data set [2] (T1/2 NASAL (MEAN), nasal spray, 0.9343-1.532 mg, mean of four dogs) was determined as 57.3 min; in data set [2] (T1/2 NASAL, nasal spray, 0.9343-1.532 mg, individual dog) it was 62.7 min; in data set [2] (po, 1 mg, T1/2 PO (MEAN), two 0.5 mg tablets, mean of four dogs) it was 67.5 min. Also, the Tmax in data set [2] (TMAX NASAL (MEAN), nasal spray, 0.9343-1.532 mg, mean of four dogs, (min)) was 18.8 min; in data set [2] (TMAX NASAL, nasal spray, 0.9343-1.532 mg, individual dog, (min)) it was 15 min; in data set [2] (Time of peak mean plasma concentration, nasal, dogs, mean) it was about 18.8 min; in data set [2] (po, 1 mg, TMAX PO (MEAN), two 0.5 mg tablets, mean of four dogs, (min)), 48.8 min; in data set [2] (po, 1 mg, TMAX PO, two 0.5 mg tablets, individual dog, (min)), 45 min; in data set [2] (po, 1 mg, Time of peak mean plasma concentration, dogs, mean), about 48.8 min. Also, the Nasal absorption entry in data set [2] (dogs, nasal) is recorded as “significant nasal absorption”. In addition, the “Mean AUC after nasal administration larger than that of oral route” value in data set [2] (dogs, nasal vs oral) is given as 2.4 fold. The “Mean half-life in both routes of administration” value in data set [2] (dogs, nasal vs oral) is recorded as “about the same”. Besides, the “Plasma levels after nasal administration compared with oral” value in data set [2] (dogs, nasal vs oral, dose-corrected, FIG. 1) is given as “consistently higher”. Further, the “Variability of oral plasma concentration-time curve compared with nasal” value in data set [2] (dogs, oral vs nasal, FIG. 1, attributed to gastric emptying of the tablets) was “more variability”. The “TMAX NASAL” value in data set [2] (nasal spray, 0.9343-1.532 mg, individual dog, (min)) was found to be 30.0. For the same compound, the “CMAX NASAL” value in data set [2] (nasal spray, 0.9343-1.532 mg, individual dog, ng/ml) is 31.20 and 25.20 and 26.60. Moreover, the “TMAX PO” value in data set [2] (oral, two 0.5 mg tablets, individual dog, (min)) is 60.0 and 30.0. The “CMAX PO” value in data set [2] (oral, two 0.5 mg tablets, individual dog, ng/ml) is 6.10 and 5.50 and 8.70.
